{"source": "paper PMC6531345", "about": "(Bioorganic & medicinal chemistry letters, 2019)", "key": {"native MDH": {"tested_on": "native MDH", "settings": "counter-screen; cited from earlier work"}, "native Rho": {"tested_on": "native Rho", "settings": "counter-screen; cited from earlier work"}, "M. tuberculosis PtpB [1]": {"molecular_target": "T1, M. tuberculosis PtpB (Mycobacterium tuberculosis, UniProt I6WXK4)", "T1 sequence (I6WXK4 whole entry, looked up)": "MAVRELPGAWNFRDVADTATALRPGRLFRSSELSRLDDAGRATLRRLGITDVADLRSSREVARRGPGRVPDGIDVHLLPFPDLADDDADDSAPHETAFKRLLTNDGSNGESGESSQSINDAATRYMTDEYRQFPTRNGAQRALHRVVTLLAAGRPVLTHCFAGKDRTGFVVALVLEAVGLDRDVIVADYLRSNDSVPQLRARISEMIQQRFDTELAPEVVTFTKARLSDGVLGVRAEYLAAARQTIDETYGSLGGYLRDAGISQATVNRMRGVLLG", "type": "biochemical", "settings": "pNPP substrate, 6–8 replicates"}, "M. tuberculosis PtpB [2]": {"molecular_target": "T1, M. tuberculosis PtpB", "settings": "cited from earlier work"}, "ESKAPE pathogens": {"tested_on": "ESKAPE pathogens", "settings": "panel of Gram-positive and Gram-negative bacteria; cited from earlier work"}, "E. coli GroEL/ES": {"tested_on": "E. coli GroEL/ES", "settings": "high-throughput screen; cited from earlier work"}, "human HSP60/10": {"tested_on": "human HSP60/10", "settings": "in vitro; cited from earlier work"}}, "data": [{"smiles": "O=[N+]([O-])c1cc(S(=O)(=O)Nc2ccc(-c3nc4cc(NS(=O)(=O)c5ccc(Cl)s5)ccc4o3)cc2)ccc1Cl", "note": "[28R]", "values": [{"measurement": "inhibition of native MDH", "setting": "native MDH", "result": "only weakly"}, {"measurement": "inhibition of native Rho", "setting": "native Rho", "result": "only weakly"}]}, {"smiles": "O=S(=O)(Nc1ccc2oc(-c3ccccc3)nc2c1)c1cccc(O)c1", "note": "[L51-m]", "values": [{"measurement": "dose-response behaviour on PtpB phosphatase activity", "setting": "M. tuberculosis PtpB [1]", "result": "bi-phasic response where compounds activate then inhibit phosphatase activity"}]}, {"smiles": "O=C(O)C(=O)N(Cc1cccc(Cl)c1)Cc1ccc(S(=O)(=O)NCCC(c2ccccc2)c2ccccc2)s1", "note": "[OMTS, (oxalylamino-methylene)-thiophene sulfonamide]", "values": [{"measurement": "inhibition of M. tuberculosis PtpB", "setting": "M. tuberculosis PtpB [2]", "result": "potent and selective inhibitor"}]}, {"smiles": "Cc1ccc(S(=O)(=O)Nc2ccc(-c3nc4ccc(NS(=O)(=O)c5ccc(C)cc5)cc4[nH]3)cc2)cc1", "note": "[compound 1]", "values": [{"measurement": "antibacterial efficacy", "setting": "ESKAPE pathogens", "result": "lacked any appreciable antibacterial efficacy"}, {"measurement": "GroEL/ES inhibition", "setting": "E. coli GroEL/ES", "result": "one of our most potent GroEL/ES inhibitors"}]}, {"smiles": "Cc1ccc(C(=O)Nc2ccc(S(=O)(=O)O)c3cc(S(=O)(=O)O)cc(S(=O)(=O)O)c23)cc1NC(=O)c1cccc(NC(=O)Nc2cccc(C(=O)Nc3cc(C(=O)Nc4ccc(S(=O)(=O)O)c5cc(S(=O)(=O)O)cc(S(=O)(=O)O)c45)ccc3C)c2)c1", "note": "[suramin]", "values": [{"measurement": "inhibition of human HSP60/10", "setting": "human HSP60/10", "result": "can inhibit human HSP60/10 in vitro"}]}]}
